According to PubChem BioAssay AID1352 (Sanford-Burnham Center for Chemical Genomics, 2008):
Calls of active or inactive are those of the source.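 The calls were made as follows: active = compound at 25 µM lifting cell survival 30% over the thapsigargin-only control at any thapsigargin dose; inactive = the rest.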

System: differentiated PC12, thapsigargin-induced death, ATPlite luminescence, 24 h
Experiment: rescue of neuronal PC12 from thapsigargin, SAR follow-up, cell-based, differentiated PC12, rat pheochromocytoma, ATP luminescence (AID 1352)
Conditions: at 25 µM, stronger effect = higher value; for survival: measured here: survival

SMILES | survival vs thapsigargin 6.25 uM | survival (thapsigargin 0.25 uM) [%] | survival (thapsigargin 1.25 uM) [%]
CCCOc1ccc(C2Nc3ccccc3NC3=C2C(=O)CC(c2ccc(OC)c(OC)c2)C3)cc1 (stereo not drawn) | 33% (inactive) | 32 | 22
COc1ccc(C2CC(=O)C3=C(C2)Nc2ccccc2NC3c2ccccc2C(F)(F)F)cc1OC (stereo not drawn) | 34% (inactive) | 30 | 25
O=C1CC(c2ccccc2)CC2=C1C(c1c(F)cccc1Cl)Nc1ccccc1N2 (stereo not drawn) | 39% (inactive) | 38 | 19
COc1ccc(C2CC(=O)C3=C(C2)Nc2ccccc2NC3c2cccc(C(F)(F)F)c2)cc1OC (stereo not drawn) | 78% | 44 | 48
CSc1ccc(C2Nc3ccccc3NC3=C2C(=O)CC(c2ccccc2)C3)cc1 (stereo not drawn) | 30% (inactive) | 22 | 17
COc1ccc(C2CC(=O)C3=C(C2)Nc2ccccc2NC3c2cccc(Oc3ccccc3)c2)cc1OC (stereo not drawn) | 25% (inactive) | 21 | 16
CC1(C)CC(=O)C2=C(C1)Nc1ccccc1NC2c1ccc(-c2ccccc2)cc1 (stereo not drawn) | 81% | 76 | 41
COc1ccc(C2CC(=O)C3=C(C2)Nc2ccccc2NC3c2cccc(Br)c2)cc1OC (stereo not drawn) | 54% | 54 | 37
CCOc1cccc(C2Nc3ccccc3NC3=C2C(=O)CC(c2ccc(OC)cc2)C3)c1 (stereo not drawn) | 32% (inactive) | 26 | 19
CCOc1cc(C2Nc3ccccc3NC3=C2C(=O)CC(c2ccc(OC)cc2)C3)cc(Cl)c1O (stereo not drawn) | 44% | 59 | 38
COc1ccc(C2CC(=O)C3=C(C2)Nc2ccccc2NC3c2cc(C)ccc2C)cc1 (stereo not drawn) | 38% | 51 | 29
